{"source": "patent US20230025327A1", "about": "“CONJUGATES OF TUBULYSIN DERIVATIVES AND CELL BINDING MOLECULES AND METHODS OF MAKING” (Hangzhou DAC Biotech Co., Ltd., priority 2019, published 2023)", "system": "NCI-N87, a human gastric carcinoma cell line", "settings": "read-out: IC50 of NCI-N87 cells, 120 hours incubation, MTT", "description": "The inhibition % was calculated according to the following equation: inhibition %=[1-(assay-blank)/(control-blank)]×100.", "data": [{"substance": "T-DM1", "values": [{"measurement": "IC50", "value": 0.32, "unit": "nM"}]}]}
